Laboratory results reported in patent US20160122320A1, “USEFUL COMBINATIONS OF MONOBACTAM ANTIBIOTICS WITH BETA-LACTAMASE INHIBITORS” (Basilea Pharmaceutica AG, priority 2005, published 2016).
Where “and” joins values, the source holds several entries; their conditions need not be identical. Identical values can stand only once. Counter-ions that a name gives are not always drawn.

Key:
Experiment in all cases: MIC, NCCLS broth microdilution
Format in all cases: cell-based
Conditions in all cases: for MIC of antibiotic at fixed inhibitor concentration (4 mg/L): MIC of antibiotic compound 1 with the labelled bridged monobactam of formula II and clavulanate, 4 mg/L each; for MIC of antibiotic: antibiotic alone, no inhibitor
Acinetobacter sp. J2 = test system: Acinetobacter sp. J2
[1] = test system: Pseudomonas aeruginosa MK1184
[2] = test system: Pseudomonas aeruginosa 1973E
In short: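 MIC read by eye as the lowest concentration giving no visible growth after overnight incubation (30° C. or 37° C.), following NCCLS M7-A5 microdilution with ≤1% final DMSO. For combinations, partner compounds (formula II, III-XIII) were fixed at 4 μg/mL each while formula I compounds were titrated.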

Enterobacter cloacae P99 = test system: Enterobacter cloacae P99
[3] = test system: Klebsiella pneumoniae CF104
Serratia marcescens S6 = test system: Serratia marcescens S6
Method: Antimicrobial activity of the compounds and of their combinations was determined against a selection of organisms according to the standard procedures described by the National Committee for Clinical Laboratory Standards (National Committee for Clinical Laboratory. Standards (2000). Methods for Dilution Antimicrobial Susceptibility Tests for Bacteria That Grow Aerobically-Fifth Edition: Approved Standard M7-A5. NCCLS, Wayne, Pa., USA).
In all cases the final concentration of DMSO incubated with the bacteria is less than or equal to 1%. […] Plates were incubated overnight at an appropriate temperature (30° C. or 37° C.) and optical densities assessed by eye. The MIC value is defined as the lowest compound concentration completely inhibiting visible growth of the test organism. When combinations between compounds of formula I with compounds of formula II and are evaluated the compounds of formula I are tested in dilution series as described above while the compounds of formula II and III-XIII were present in all wells at a constant concentration of 4 μg/mL each.

[4] = test system: Stenotrophomonas malthophilia 1AC736
[5] = Stenotrophomonas malthophilia 1AC736
[6] = Stenotrophomonas maltophilia 1AC736

| SMILES | MIC of antibiotic at fixed inhibitor concentration (4 mg/L) (Acinetobacter sp. J2; Acinetobacter sp. J2) [µg/mL] | MIC of antibiotic at fixed inhibitor concentration (4 mg/L) [1] [µg/mL] | MIC of antibiotic at fixed inhibitor concentration (4 mg/L) [2] [µg/mL] | MIC of antibiotic at fixed inhibitor concentration (4 mg/L) (Enterobacter cloacae P99) [µg/mL] | MIC of antibiotic at fixed inhibitor concentration (4 mg/L) [3] [µg/mL] | MIC of antibiotic at fixed inhibitor concentration (4 mg/L) (Serratia marcescens S6) [µg/mL] | MIC of antibiotic at fixed inhibitor concentration (4 mg/L) [4, 5] [µg/mL] | MIC of antibiotic (Acinetobacter sp. J2; Acinetobacter baumannii J2) [µg/mL] | MIC of antibiotic [1] [µg/mL] | MIC of antibiotic [2] [µg/mL] | MIC of antibiotic (Enterobacter cloacae P99) | MIC of antibiotic [3] [µg/mL] | MIC of antibiotic (Serratia marcescens S6) [µg/mL] | MIC of antibiotic [4, 6] [µg/mL] | also measured |
| --- | --- | --- | --- | --- | --- | --- | --- | --- | --- | --- | --- | --- | --- | --- | --- |
| CC(=O)Nc1cccc(NC(=O)N2CC[C@@H]3[C@H]2C(=O)N3S(=O)(=O)[O-])c1.[Na+] [Compound 307, Sodium(1S,5R)-2-{N-[3-(acetylamino)phenyl]carbamoyl}-7-oxo-2,6-diazabicyclo[3.2.0]heptane-6-sulfonate] | >32 | >32 | 8 | 32 | 2 | 0.25 | 0.125 | – | – | – | – | – | – | – | – |
| CC1C(NC(=O)C(=NOCc2cc(=O)c(O)cn2O)c2nsc(N)n2)C(=O)N1S(=O)(=O)O (stereo not drawn) [Compound 2] | – | – | – | – | – | – | – | 4 | 8 | 8 | >32 µg/mL | >32 | >32 | 4 | MIC of antibiotic at fixed inhibitor concentration of 4 mg/L (Acinetobacter sp. J2; Acinetobacter baumannii J2, with 206 and clavulanate): 16 µg/mL; MIC of antibiotic at fixed inhibitor concentration of 4 mg/L ([1]; with 206 and clavulanate): 16 µg/mL; MIC of antibiotic at fixed inhibitor concentration of 4 mg/L ([2]; with 206 and clavulanate): 8 µg/mL; MIC of antibiotic at fixed inhibitor concentration of 4 mg/L (Enterobacter cloacae P99; with 206 and clavulanate): 16 µg/mL; MIC of antibiotic at fixed inhibitor concentration of 4 mg/L ([3]; with 206 and clavulanate): 8 µg/mL; MIC of antibiotic at fixed inhibitor concentration of 4 mg/L (Serratia marcescens S6; with 206 and clavulanate): >32 µg/mL; MIC of antibiotic at fixed inhibitor concentration of 4 mg/L ([4]; Stenotrophomonas maltophilia 1AC736, with 206 and clavulanate): 0.5 µg/mL |
| C[C@@H](O)[C@H]1C(=O)N2C(C(=O)O)=C(S[C@@H]3CN[C@H](C(=O)N(C)C)C3)[C@H](C)[C@H]12 [Meropenem, meropenem, reference compound] | – | – | – | – | – | – | – | 2 | 2 | 1 | 0.13 µg/mL and 0.125 µg/mL | <0.06 | 16 | 32 | MIC of antibiotic (Acinetobacter sp. J2; Acinetobacter sp. J2): 2 µg/mL; MIC of antibiotic [4, 5]: 32 µg/mL |
| NC(=O)c1cccc(NC(=O)N2CC[C@@H]3[C@H]2C(=O)N3S(=O)(=O)[O-])c1.[Na+] [Compound 305] | >32 | >32 | 4 | 4 | 4 | 0.25 | 0.25 | – | – | – | – | – | – | – | – |
| NC(=O)c1cnccc1C(=O)NCC(=O)N1CC[C@@H]2[C@H]1C(=O)N2S(=O)(=O)O [Compound 402, (1S,5R)-2-{2-[(3-carbamoylpyridyl-4)carbonylamino]acetyl}-7-oxo-2,6-diazabicyclo[3.2.0]heptane-6-sulfonic acid] | 8 | 32 | 4 | 32 | <0.06 | 0.25 | <0.06 | – | – | – | – | – | – | – | – |
| O=C(C[n+]1cccc(Cc2ccccc2)c1)N1CC[C@@H]2[C@H]1C(=O)N2S(=O)(=O)[O-] [Compound 123, (1S,5R)-7-oxo-2-{2-[3-benzylpyridinium]acetyl}-2,6-diazabicyclo[3.2.0]heptane-6-sulfonate, inner salt] | >32 | 32 | 4 | 32 | 0.125 | 0.25 | 0.125 | – | – | – | – | – | – | – | – |
